Assays:
HepG2 cells [1] = assay: Oil Red O staining of LXR (T0901317)-induced lipid accumulation in HepG2 cells; assay type: cell-based, human; settings: for antagonist co-addition: effect of lodoxamide on LXR-induced lipid accumulation: T0901317/lodoxamide, concentration-dependent
Description: Human hepatocellular carcinoma HepG2 cells were grown in Minimum Essential Medium (MEM) supplemented with 10% fetal bovine serum (FBS), 2 mM L-glutamine, 1× non-essential amino acid, 1 mM sodium pyruvate, and 1× penicillin/streptomycin. Materials for cell culture were all from Sigma-Aldrich (St. Louis, MO) or Thermo Fisher Scientific (Waltham, MA). Cells were incubated in a humidified CO2 incubator at 37 °C. […] Cells were seeded onto a 12-well plate (1 × 10^5 cells/well) for 24 h prior to drug treatment. […] Lipid accumulation was measured by Oil Red O staining.

[2] = test system: hepatocytes from wild-type mice; assay: Oil Red O lipid accumulation in hepatocytes from wild-type mice; assay type: cell-based, mouse; settings: wild-type mice, 5 × 10^–6 M, 48 h
Description: All mice were bred as WT or homozygous onto a C57BL/6N background. Animals were cared for in accordance with national guidelines on animal experimentation. All animal experiments were conducted under a home office license held by the authors. WT, humanized GPR35a, or KO male mice at 3–4 months of age were used in this study. These mice were fed ad libitum with a standard mouse chow diet. Briefly, mouse primary hepatocytes were isolated using a two-step collagenase perfusion technique.[45] Twelve-well plates or xCELLigence E plates were coated with rat tail collagen I solution (Thermo Fisher Scientific) overnight at 37 °C and washed with PBS. Isolated primary hepatocytes were seeded onto 12-well plates (8 × 10^4 cells/well) or xCELLigence E plates (2 × 10^4 cells/well) in Wiliam’s E medium (Thermo Fisher Scientific) supplemented with 10% fetal bovine serum (FBS) and 1× penicillin/streptomycin. Cells were maintained for 7 days with a fresh medium change every other day. […] Human GPR35 activation was examined using xCELLigence RTCA assay. To access the impact of GPR35 agonists on the lipid accumulation, WT and humanized GPR35 hepatocytes were incubated with T0901317 and/or GPR35 agonists/antagonists, as indicated (in DMEM medium containing 5% FBS and 1.5% BSA) for 48 h. Alternatively, GPR35 KO hepatocytes were incubated with drugs, as indicated for 5 days. […] After each drug treatment, hepatocytes were stained with Oil Red O and quantified as described. […]
(§1) Lipid accumulation was measured by Oil Red O staining. […] After PBS washing, Oil Red O was extracted from cells using 150 μl of isopropanol and OD510 nm measured. […] These cells were then stained with Hoechst 33342 (1 μg/mL) and the fluorescence intensity of Hoechst (represents the DNA content in cells) was measured using a CLARIOstar plate reader (BMG LABTECH). Oil Red O accumulation was corrected for differences in DNA content and expressed as relative absorbency, taking the control condition (treated with vehicle only) as 1.

[3] = test system: hepatocytes from hGPR35a-HA-expressing mice; assay: Oil Red O lipid accumulation in hepatocytes from hGPR35a-HA-expressing mice; assay type: cell-based, mouse
Description: All mice were bred as WT or homozygous onto a C57BL/6N background. Animals were cared for in accordance with national guidelines on animal experimentation. All animal experiments were conducted under a home office license held by the authors. WT, humanized GPR35a, or KO male mice at 3–4 months of age were used in this study. These mice were fed ad libitum with a standard mouse chow diet. Briefly, mouse primary hepatocytes were isolated using a two-step collagenase perfusion technique.[45] Twelve-well plates or xCELLigence E plates were coated with rat tail collagen I solution (Thermo Fisher Scientific) overnight at 37 °C and washed with PBS. Isolated primary hepatocytes were seeded onto 12-well plates (8 × 10^4 cells/well) or xCELLigence E plates (2 × 10^4 cells/well) in Wiliam’s E medium (Thermo Fisher Scientific) supplemented with 10% fetal bovine serum (FBS) and 1× penicillin/streptomycin. Cells were maintained for 7 days with a fresh medium change every other day. […] Human GPR35 activation was examined using xCELLigence RTCA assay. To access the impact of GPR35 agonists on the lipid accumulation, WT and humanized GPR35 hepatocytes were incubated with T0901317 and/or GPR35 agonists/antagonists, as indicated (in DMEM medium containing 5% FBS and 1.5% BSA) for 48 h. Alternatively, GPR35 KO hepatocytes were incubated with drugs, as indicated for 5 days. In the T0901317 pretreatment model, human GPR35 hepatocytes were stimulated with T0901317 for 2 days and then further treated with lodoxamide for a further 3 days. After each drug treatment, hepatocytes were stained with Oil Red O and quantified as described. Each experiment was repeated at least three times.
Lipid accumulation was measured by Oil Red O staining. A working solution of Oil Red O was prepared, as described with modification.[46] After drug treatment, cells were washed with PBS and fixed with formalin solution for 1 h at 4 °C. Then, cells were stained with Oil Red O working solution for 10 min at room temperature. After PBS washing, Oil Red O was extracted from cells using 150 μl of isopropanol and OD510 nm measured. After the lipid extraction, cells were further soaked in PBS overnight at 4 °C. These cells were then stained with Hoechst 33342 (1 μg/mL) and the fluorescence intensity of Hoechst (represents the DNA content in cells) was measured using a CLARIOstar plate reader (BMG LABTECH). Oil Red O accumulation was corrected for differences in DNA content and expressed as relative absorbency, taking the control condition (treated with vehicle only) as 1.

[4] = test system: hepatocytes from GPR35 knock-out mice; assay: Oil Red O lipid accumulation in hepatocytes from GPR35 knock-out mice; settings: equivalent time of exposure as in wild-type hepatocytes (48 h)
Description: All mice were bred as WT or homozygous onto a C57BL/6N background. Animals were cared for in accordance with national guidelines on animal experimentation. All animal experiments were conducted under a home office license held by the authors. WT, humanized GPR35a, or KO male mice at 3–4 months of age were used in this study. These mice were fed ad libitum with a standard mouse chow diet. Briefly, mouse primary hepatocytes were isolated using a two-step collagenase perfusion technique.[45] Twelve-well plates or xCELLigence E plates were coated with rat tail collagen I solution (Thermo Fisher Scientific) overnight at 37 °C and washed with PBS. […] After each drug treatment, hepatocytes were stained with Oil Red O and quantified as described. […]
as §1

[5] = test system: GPR35 knock-out clones of HepG2 cells; assay: Oil Red O lipid accumulation in GPR35 knock-out clones of HepG2 cells; assay type: cell-based, human; settings: T0901317 4 × 10^–6 M, 48 h, higher baseline
Description: Human hepatocellular carcinoma HepG2 cells were grown in Minimum Essential Medium (MEM) supplemented with 10% fetal bovine serum (FBS), 2 mM L-glutamine, 1× non-essential amino acid, 1 mM sodium pyruvate, and 1× penicillin/streptomycin. Materials for cell culture were all from Sigma-Aldrich (St. Louis, MO) or Thermo Fisher Scientific (Waltham, MA). Cells were incubated in a humidified CO2 incubator at 37 °C. Experiments were performed when cell confluence reached 80%. Cells were seeded onto a 12-well plate (1 × 10^5 cells/well) for 24 h prior to drug treatment. […] Expression of full-length mRNA from the GPR35 gene was eliminated using a dual synthetic gRNA/RNP approach[43] with one guide cutting the intron and one in the exon region to generate a nonfunctional GPR35 protein. The gRNAs were designed with the CRISPR Finder (Welcome Sanger Institute). […] Transfected cells were plated and analyzed for editing efficiency 24-48 h after electroporation. […] To further quantify and capture the genomic DNA deletion, PCR primers listed in Table S1 were designed to amplify the genomic DNA surrounding the target site. […] The amplified PCR products were subjected to paired-end sequencing using NextSeq500 from Illumina using paired-end chemistry with a 150-bp read length. […] The impedance was recorded using xCELLigence RTCA. […] Lipid accumulation was measured by Oil Red O staining.

[6] = test system: mouse orthologue of GPR35; design: method as in PMID 22967846, PMID 30601679; settings: cited from earlier work
[7] = test system: primary mouse hepatocytes; design: method as in Nam et al. 37; settings: against 1 × 10^–6 M lodoxamide; ref Nam et al. 37; read-out: IC50 to block mouse GPR35 in primary hepatocytes; cited from earlier work
HepG2 cells [8] = assay: Label-free cellular impedance assay (xCELLigence) in HepG2 cells; assay type: cell-based, human; settings: HepG2 cells; for impedance response of antagonist added alone: 1 × 10^–5 M; for impedance response to lodoxamide on co-addition of antagonist: antagonist 1 × 10^–5 M, lodoxamide 1 × 10^–8 M
Description: (§2) HepG2 cells were seeded onto xCELLigence E plates (2 × 10^4 cells/well) and incubated for 24 h at 37 °C. To evaluate GPR35 activation and its downstream G protein signaling, HepG2 cells or primary mouse hepatocytes were exposed to GPR35 antagonists or G protein inhibitors 1 h (overnight for Pertussis toxin) prior to GPR35 agonist stimulation. After the addition of GPR35 agonist or vehicle control, the impedance (represented as “cell index”) was recorded every 30 s over a 2 h period using xCELLigence RTCA (Agilent). Each experiment was repeated at least three times.

human isoforms of GPR35 = target: human isoforms of GPR35; design: method as in PMID 23888932; settings: read-out: Ki from competition studies against a [3H]radiolabeled agonist; cited from earlier work
[9] = test system: clone 27 HepG2 cells transfected with human GPR35a; assay: Cellular impedance in clone 27 cells transiently transfected with human GPR35a; assay type: cell-based; settings: ML-145 1 × 10^–5 M, lodoxamide 1 × 10^–8 M
Description: Briefly, CRISPR KO cells were transiently transfected 24 h with the human GPR35a expression vector using LipofectAMINE 3000 reagent, according to the manufacturer’s instructions. […] Alternatively, after 24 h transfection, cells were seeded onto a 12-well plate (1 × 10^5 cells/well) for 24 h at 37 °C. Then, cells were incubated with T0901317 and/or GPR35 agonists (in MEM containing 5% FBS) for 72 h. After the drug treatment, cells were stained with Oil Red O to examine the levels of lipid accumulation. Each experiment was repeated at least three times.
as §2

[10] = test system: hepatocytes from hGPR35a-HA-expressing mice; assay: Label-free cellular impedance assay in hepatocytes from hGPR35a-HA-expressing mice; assay type: cell-based, mouse
[11] = hepatocytes from hGPR35a-HA-expressing mice

With `O=S(=O)(c1ccccc1)N(CC(F)(F)F)c1ccc(C(O)(C(F)(F)F)C(F)(F)F)cc1` [T0901317, N-(2,2,2-trifluoroethyl)-N-[4-[2,2,2-trifluoro-1-hydroxy-1-(trifluoromethyl)ethyl]phenyl]benzenesulfonamide] as the compound, how does the “deposition of triglycerides and other lipids (Oil Red O)” value (HepG2 cells [1]; 4 × 10^–6 M, 48 h) read?
Its value is “substantially increased”.

And the “lipid accumulation in mouse hepatocytes” value [2]?
The value was “able to promote lipid accumulation”.

And the “lipid accumulation (Oil Red O) in hepatocytes from hGPR35a-HA-expressing mice” value ([3]; T0901317 8 × 10^–6 M)?
The value was “clear increase in lipid accumulation”.

And the “effect of T0901317 on lipid accumulation in hepatocytes from GPR35 knock-out mice” value [4]?
The value was “modest”.

What about the “lipid accumulation on LXR activation in GPR35 knock-out clones” value [5] of the same compound?
The value was “still able to promote lipid accumulation”.

Which “affinity at the mouse orthologue of GPR35” value [6] does the source give for `COC(=O)c1cnn(-c2ccc(F)cc2F)c1C=NNC(=S)NC(C)(C)C` [CID-2745687, 1-(2,4-difluorophenyl)-5-[[2-[[(1,1-dimethylehyl)amino]thioxomethyl]hydrazinylidene]methyl]-1H-pyrazole-4-carboxylic acid methyl ester] here?
Its value is “neither of these ligands has measurable affinity”.

And the IC50 [7]?
The IC50 was 98 nM.

And the “antagonist co-addition: effect of lodoxamide on LXR-induced lipid accumulation” value (HepG2 cells [1])?
Its value is “prevented the effect of lodoxamide on lipid accumulation”.

What about the “impedance response of antagonist added alone” value (HepG2 cells [8]) of the same compound?
The value was “neither antagonist generated a response distinct from the vehicle”.

What about the “impedance response to lodoxamide on co-addition of antagonist” value (HepG2 cells [8]) of the same compound?
The value was “absent”.

And the Ki (human isoforms of GPR35)?
The Ki was 42 nM.

Which “affinity at the mouse orthologue of GPR35” value [6] does the source give for `CC(/C=C1\SC(=S)N(CCCC(=O)Nc2ccc(C(=O)O)c(O)c2)C1=O)=C\c1ccccc1` [ML-145, 2-hydroxy-4-[4-(5Z)-5-[(E)-2-methyl-3-phenylprop-2-enylidene]-4-oxo-2-sulfanylidene-1,3-thiazolidin-3-yl]butanoylaminobenzoic acid] here?
Its value is “neither of these ligands has measurable affinity”.

What about the “effect of co-addition of antagonist on the lodoxamide impedance signal in clone 27 cells transfected with human GPR35a” value [9] of the same compound?
The value was “blocked”.

What about the “effect of co-addition of antagonist on the lodoxamide impedance response” value ([10]; ML-145 1 × 10^–5 M, lodoxamide 1 × 10^–7 M) of the same compound?
Its value is “prevented”.

And the “impedance effect of antagonist alone versus DMSO-containing vehicle” value [10, 11]?
The value was “no separate effect”.

And the “antagonist co-addition: effect of lodoxamide on LXR-induced lipid accumulation” value (HepG2 cells [1])?
The value was “prevented the effect of lodoxamide on lipid accumulation”.

And the “impedance response of antagonist added alone” value (HepG2 cells [8])?
Its value is “neither antagonist generated a response distinct from the vehicle”.

What about the “impedance response to lodoxamide on co-addition of antagonist” value (HepG2 cells [8]) of the same compound?
Its value is “absent”.

What about the “effect of antagonist added alone on lipid content” value [3, 11] of the same compound?
The value was “without effect when added alone”.

What about the “effect of antagonist on lodoxamide suppression of lipid accumulation” value ([3]; hepatocytes from hGPR35a-HA-expressing mice, T0901317/lodoxamide 5 × 10^–6 M) of the same compound?
Its value is “blocked the effect of lodoxamide in a concentration-dependent manner”.

And the Ki (human isoforms of GPR35)?
Its Ki is 8.7 nM.
